Laboratory results reported in US8178687B2, “Derivatives of pyrroloindole which are inhibitors of Hsp90, compositions containing same, and use thereof” (Sanofi-Aventis, priority 2009, dated 2012).

Target: Hsp82 (Saccharomyces cerevisiae, UniProt P02829)
Assay: Hsp82 ATPase activity, pyruvate kinase/lactate dehydrogenase enzymatic coupling method (NADH absorbance at 340 nm)
Format: biochemical
Conditions: 1 μM Hsp82, 250 μM ATP, 37° C., PK/LDH coupled, initial rate
From the text: The formation of ADP due to the ATPase activity of Hsp82 was used to develop another method for evaluating the enzymatic activity of this enzyme by application of an enzymatic coupling system involving pyruvate kinase (PK) and lactate dehydrogenase (LDH). In this kinetic-type spectrophotometric method, PK catalyses the formation of ATP and of pyruvate from phosphoenol pyruvate (PEP) and the ADP produced by Hsp82. The pyruvate formed, which is a substrate for LDH, is subsequently converted to lactate in the presence of NADH. In this case, the decrease in NADH concentration, measured through the decrease in absorbance at the wavelength of 340 nm, is proportional to the concentration of ADP produced by Hsp82.
The products tested are incubated in a reaction volume of 100 μl of buffer composed of 100 mM Hepes-NaOH (pH 7.5), 5 mM MgCl2, 1 mM DTT, 150 mM KCl, 0.3 mM NADH, 2.5 mM PEP and 250 μM ATP. This mixture is preincubated at 37° C. for 30 minutes before the addition of 3.77 units of LDH and 3.77 units of PK. The reaction is initiated by addition of the product to be evaluated, in varying concentrations, and of Hsp82, at the concentration of 1 μM. The enzymatic activity of Hsp82 is then measured continuously, in a microplate reader, at 37° C., at the wavelength of 340 nm. The initial rate of the reaction is obtained by measuring the slope of the tangent to the origin of the curve recorded. The enzymatic activity is expressed in μM of ADP formed per minute. The effect of the various products tested is expressed as capacity for inhibiting the ATPase activity according to the codification below: […]

Sequence of Hsp82 (P02829 whole entry): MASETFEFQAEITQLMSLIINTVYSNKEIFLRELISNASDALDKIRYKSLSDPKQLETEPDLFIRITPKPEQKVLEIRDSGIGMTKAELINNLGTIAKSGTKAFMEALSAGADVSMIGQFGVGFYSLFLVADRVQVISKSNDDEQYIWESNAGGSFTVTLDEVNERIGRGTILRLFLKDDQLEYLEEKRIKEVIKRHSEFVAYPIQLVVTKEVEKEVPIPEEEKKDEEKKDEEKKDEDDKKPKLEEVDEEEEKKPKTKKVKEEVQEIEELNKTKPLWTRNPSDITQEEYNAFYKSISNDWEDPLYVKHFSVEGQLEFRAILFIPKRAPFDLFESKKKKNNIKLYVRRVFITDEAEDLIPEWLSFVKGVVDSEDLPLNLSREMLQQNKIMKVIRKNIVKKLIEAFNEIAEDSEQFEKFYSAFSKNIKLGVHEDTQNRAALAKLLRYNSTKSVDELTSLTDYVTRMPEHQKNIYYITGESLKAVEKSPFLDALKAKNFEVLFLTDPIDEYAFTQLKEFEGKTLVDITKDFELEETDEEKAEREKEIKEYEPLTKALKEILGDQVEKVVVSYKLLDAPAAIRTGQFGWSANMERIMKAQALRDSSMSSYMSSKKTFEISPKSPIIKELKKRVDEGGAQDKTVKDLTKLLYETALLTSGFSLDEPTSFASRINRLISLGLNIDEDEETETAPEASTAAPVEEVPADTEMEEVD

O=C(NC1c2cccc(-c3nc4ccncc4[nH]3)c2-n2cccc21)c1ccnc2[nH]ccc12 (stereo not shown) [Example 3, 1H-pyrrolo[2,3-b]pyridine-4-carboxylic acid [5-(3H-imidazo[4,5-c]pyridin-2-yl)-9H-pyrrolo[1,2-a]indol-9-yl]amide]
IC50: < 1000 nM

O=C(NC1c2cccc(-c3nc4ccncc4[nH]3)c2-n2cccc21)c1cc(Cl)nc2[nH]ccc12 (stereo not shown) [Example 4, 6-chloro-1H-pyrrolo[2,3-b]pyridine-4-carboxylic acid [5-(3H-imidazo[4,5-c]pyridin-2-yl)-9H-pyrrolo[1,2-a]indol-9-yl]amide]
IC50: 1000 to 10000 nM

O=C(NC1c2cccc(-c3cnc4ccccc4c3)c2-n2cccc21)c1ccnc2[nH]ccc12 (stereo not shown) [Example 2, 1H-pyrrolo[2,3-b]pyridine-4-carboxylic acid (5-quinolin-3-yl-9H-pyrrolo[1,2-a]indol-9-yl)amide]
IC50: 1000 to 10000 nM

O=C(NC1c2cccc(-c3nc4ccc(F)cc4[nH]3)c2-n2cccc21)c1ccnc2[nH]ccc12 (stereo not shown) [Example 1, 1H-pyrrolo[2,3-b]pyridine-4-carboxylic acid [5-(6-fluoro-1H-benzimidazol-2-yl)-9H-pyrrolo[1,2-a]indol-9-yl]amide]
IC50: < 1000 nM
